20 compounds from publication PMC4182301, “Design, synthesis and SAR exploration of tri-substituted 1,2,4-triazoles as inhibitors of the annexin A2–S100A10 protein interaction” (Bioorganic & Medicinal Chemistry, 2014) can be followed below.

The target of the assay is interaction between the AnxA2 N-terminus and S100A10 (Homo sapiens, UniProt P60903). The experiment in a line: Fluorescence screening assay (FRET competitive binding, Cy3-AnxA2(Ac1–14) peptide / Cy5-S100A10). The conditions noted are these: for pIC50 ± SE / IC50: FRET assay, 12 observations; for fold loss of activity on truncation of the 4,6-dimethylpyrimidin-2-ylsulfanyl side chain to methyl: relative to parent compound (64 vs 36, 65 vs 46, 66 vs 47). As to the method: Assessment of compound activity was performed as described.[35] Briefly, a Cy5-labelled S100A10 tracer was developed and binding of a Cy3-labelled AnxA2(Ac1–14) peptide ligand was assessed using a fluorescence resonance energy transfer readout. Assays were carried out in Nunc black non-treated 384-well plates at 20 °C in 50 μL buffer C. All incubations were performed in quadruplicate. Compounds, peptide and buffer controls were added to the wells in a 10 μL volume in 5% DMSO. Cy5-labelled S100A10 tracer (407 nM) and Cy3-labelled AnxA2(Ac1–14) peptide ligand (1.33 μM) were pre-incubated for 5 min at 20 °C and 40 μL of the preformed complex was then added to the wells and mixed for 10 s to yield a final DMSO concentration of 1%. After 5 min incubation at 20 °C, readings were taken on a Perkin Elmer Envision plate reader by excitation at 488 nm and emission at 695 nm. Fluorescence resonance energy transfer (FRET) was calculated by subtracting the sum of the fluorescence emission of S100A10-Cy5 and AA2(1–14)-Cy3 individually from that measured for the co-incubated partners. Compound binding was calculated as percentage of non-treated control and data were analysed by non-linear regression (dose response—variable slope with bottom and top parameters fixed at 0% and 100%, respectively) using Graphpad Prism Software to determine the IC50 of binding (primary assay).

[1] abbreviates: Table 1, read-out: pIC50 ± SE (converted).

Read-outs that look alike come from different tables or passages of the source.

Sequence of interaction between the AnxA2 N-terminus and S100A10 (P60903 whole entry, species assumed, the tested form may be a part): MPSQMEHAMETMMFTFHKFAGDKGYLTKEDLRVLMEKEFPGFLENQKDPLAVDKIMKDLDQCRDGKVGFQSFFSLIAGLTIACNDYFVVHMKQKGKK

Turning to `Cc1ccc(NC(=O)CSc2nnc(CSc3nc(C)cc(C)n3)n2Cc2ccco2)cc1` [Compound 33, 2-[5-(4,6-Dimethyl-pyrimidin-2-ylsulfanylmethyl)-4-furan-2-ylmethyl-4H-[1,2,4]triazol-3-ylsulfanyl]-N-p-tolyl-acetamide], for the setting “Table 1”, the “pIC50 ± SE” value is reported as 4.96 ± 0.04. Moreover, the IC50 (Table 1, read-out: IC50) was determined as 11 µM.
Turning to `COc1ccc(-n2c(CSc3nc(C)cc(C)n3)nnc2SCC(=O)Nc2ccc(C(C)C)cc2)cc1` [Compound 48, 2-[5-(4,6-Dimethyl-pyrimidin-2-ylsulfanylmethyl)-4-(4-methoxy-phenyl)-4H-[1,2,4]triazol-3-ylsulfanyl]-N-(4-isopropyl-phenyl)-acetamide], the “pIC50 ± SE” value (Table 2) is 4.82 ± 0.02. For the setting “Table 2, read-out: IC50”, the IC50 came out at 15 µM.
Turning to `Cc1cc(C)nc(SCc2nnc(SCC(=O)Nc3cc(C(F)(F)F)cc(C(F)(F)F)c3)n2Cc2ccco2)n1` [Compound 38, N-(3,5-Bis-trifluoromethyl-phenyl)-2-[5-(4,6-dimethyl-pyrimidin-2-ylsulfanylmethyl)-4-furan-2-ylmethyl-4H-[1,2,4]triazol-3-ylsulfanyl]-acetamide], under “Table 1”, the “pIC50 ± SE” value is reported as 5.05 ± 0.03. The IC50 (Table 1, read-out: IC50) is 9 µM.
As for `COCCCn1c(C)nnc1SCC(=O)Nc1ccc(C(C)C)cc1` [Compound 66, N-(4-Isopropyl-phenyl)-2-[4-(3-methoxy-propyl)-5-methyl-4H-[1,2,4]triazol-3-ylsulfanyl]-acetamide], the “fold loss of activity on truncation of the 4,6-dimethylpyrimidin-2-ylsulfanyl side chain to methyl” value (“fold loss of activity” for short) came out at 23 fold. Under “Table 3”, the “pIC50 ± SE” value was 3.79 ± 0.14. In addition, the IC50 (Table 3, read-out: IC50) is 164 µM.
As for `Cc1nnc(SCC(=O)Nc2ccc(C(C)C)cc2)n1Cc1ccco1` [Compound 64, 2-(4-Furan-2-ylmethyl-5-methyl-4H-[1,2,4]triazol-3-ylsulfanyl)-N-(4-isopropyl-phenyl)-acetamide], the “fold loss of activity” value was determined as 10 fold. Besides, for the setting “Table 3”, the “pIC50 ± SE” value worked out at 4.40 ± 0.03. Further, the IC50 (Table 3, read-out: IC50) was found to be 40 µM.
As to `Cc1cc(C)nc(SCc2nnc(SCC(=O)Nc3ccc(Br)cc3)n2Cc2ccco2)n1` [Compound 40, N-(4-Bromo-phenyl)-2-[5-(4,6-dimethyl-pyrimidin-2-ylsulfanylmethyl)-4-furan-2-ylmethyl-4H-[1,2,4]triazol-3-ylsulfanyl]-acetamide], the “pIC50 ± SE” value (Table 1) is reported as 5.14 ± 0.03. In addition, where the note is “Table 1, read-out: IC50”, the IC50 was 7 µM. Also, for the setting “relative to 1a”, the “fold increase in potency compared to initial hit compound 1a” value is listed as 5 fold.
With `COCCCn1c(CSc2nc(C)cc(C)n2)nnc1SCC(=O)Nc1ccc(C(C)C)cc1` [Compound 47, 2-[5-(4,6-Dimethyl-pyrimidin-2-ylsulfanylmethyl)-4-(3-methoxy-propyl)-4H-[1,2,4]triazol-3-ylsulfanyl]-N-(4-isopropyl-phenyl)-acetamide], the “pIC50 ± SE” value (Table 2) stood at 5.13 ± 0.04. Besides, the IC50 (Table 2, read-out: IC50) came to 7 µM.
On the same counts, the results for `COc1ccc(-n2c(CSc3nc(C)cc(C)n3)nnc2SCC(=O)Nc2ccc(C)c(C)c2)cc1` [Compound 43, N-(3,4-Dimethyl-phenyl)-2-[5-(4,6-dimethyl-pyrimidin-2-ylsulfanylmethyl)-4-(4-methoxy-phenyl)-4H-[1,2,4]triazol-3-ylsulfanyl]-acetamide] are 4.29 ± 0.09 and 52 µM.
On to `Cc1cc(C)nc(SCc2nnc(SCC(=O)Nc3ccc(C)c(C)c3)n2Cc2ccco2)n1` [Compound 35, N-(3,4-Dimethyl-phenyl)-2-[5-(4,6-dimethyl-pyrimidin-2-ylsulfanylmethyl)-4-furan-2-ylmethyl-4H-[1,2,4]triazol-3-ylsulfanyl]-acetamide], for which the “pIC50 ± SE” value (Table 1) came out at 5.02 ± 0.04. The IC50 (Table 1, read-out: IC50) worked out at 10 µM.
On the same counts, the results for `Cc1cc(C)nc(SCc2nnc(SCC(N)=O)n2Cc2ccco2)n1` [Compound 27, 2-[5-(4,6-Dimethyl-pyrimidin-2-ylsulfanylmethyl)-4-furan-2-ylmethyl-4H-[1,2,4]triazol-3-ylsulfanyl]-acetamide] are 3.75 ± 0.15 and 178 µM.
For `Cc1nnc(NC(=O)CSc2nnc(Cc3ccccc3)n2Cc2ccccc2)s1` [Compound 1b], under “Table 1, read-out: IC50”, the IC50 is 53 µM.
As to `CCCCn1c(SCC(=O)Nc2cccc(C)n2)nnc1-c1ccco1` [Compound 1d], the IC50 (Table 1, read-out: IC50) turned out to be 103 µM and the IC50 under setting [1] is 105 µM.
As for `Cc1cc(C)nc(SCc2nnc(SCC(=O)Nc3ccccc3)n2Cc2ccco2)n1` [Compound 31, 2-[5-(4,6-Dimethyl-pyrimidin-2-ylsulfanylmethyl)-4-furan-2-ylmethyl-4H-[1,2,4]triazol-3-ylsulfanyl]-N-phenyl-acetamide], the “pIC50 ± SE” value (Table 1) is 4.63 ± 0.04. Further, the IC50 (Table 1, read-out: IC50) stood at 23 µM.
Take `COc1ccc(OCc2nnc(SC(C)C(=O)Nc3nccs3)n2-c2ccccc2)cc1` (stereo not shown) [Compound 1c]: the IC50 (Table 1, read-out: IC50) is 108 µM and the IC50 under setting [1] is 110 µM.
As for `C=CCn1c(C)nnc1SCC(=O)Nc1ccc(C(C)C)cc1` [Compound 65, 2-(4-Allyl-5-methyl-4H-[1,2,4]triazol-3-ylsulfanyl)-N-(4-isopropyl-phenyl)-acetamide], the “fold loss of activity” value turned out to be 14 fold. Further, the “pIC50 ± SE” value (Table 3) is 3.86 ± 0.11. Where the note is “Table 3, read-out: IC50”, the IC50 was 138 µM.
`COCCCn1c(CSc2nc(C)cc(C)n2)nnc1SCC(=O)Nc1ccc(C)c(C)c1` [Compound 42, N-(3,4-Dimethyl-phenyl)-2-[5-(4,6-dimethyl-pyrimidin-2-ylsulfanylmethyl)-4-(3-methoxy-propyl)-4H-[1,2,4]triazol-3-ylsulfanyl]-acetamide]: the “pIC50 ± SE” value (Table 2) is 4.49 ± 0.04. Also, where the note is “Table 2, read-out: IC50”, the IC50 is 32 µM.
For `C=CCn1c(CSc2nc(C)cc(C)n2)nnc1SCC(=O)Nc1ccc(C(F)(F)F)cc1` [Compound 50, 2-[4-Allyl-5-(4,6-dimethyl-pyrimidin-2-ylsulfanylmethyl)-4H-[1,2,4]triazol-3-ylsulfanyl]-N-(4-trifluoromethyl-phenyl)-acetamide], in that order: 5.08 ± 0.04 and 8 µM.
With `Cc1cc(C)nc(SCc2nnc(SCC(=O)Nc3cc(C)on3)n2Cc2ccco2)n1` [Compound 30, 2-[5-(4,6-Dimethyl-pyrimidin-2-ylsulfanylmethyl)-4-furan-2-ylmethyl-4H-[1,2,4]triazol-3-ylsulfanyl]-N-(5-methyl-isoxazol-3-yl)-acetamide], under “Table 1”, the “pIC50 ± SE” value is given as 4.37 ± 0.07. In addition, for the setting “Table 1, read-out: IC50”, the IC50 is 43 µM.
`Cc1cc(C)nc(SCc2nnc(SCCC(=O)Nc3ccc(C)c(C)c3)n2Cc2ccco2)n1` [Compound 45, N-(3,4-Dimethyl-phenyl)-3-[5-(4,6-dimethyl-pyrimidin-2-ylsulfanylmethyl)-4-furan-2-ylmethyl-4H-[1,2,4]triazol-3-ylsulfanyl]-propionamide]: the “pIC50 ± SE” value (Table 2) is given as 4.62 ± 0.03. Also, the IC50 (Table 2, read-out: IC50) is 24 µM.
Take `Cc1ccc(C)c(NC(=O)CSc2nnc(CSc3nc(C)cc(C)n3)n2Cc2ccco2)c1` [Compound 1a, N-(2,5-Dimethyl-phenyl)-2-[5-(4,6-dimethyl-pyrimidin-2-ylsulfanylmethyl)-4-furan-2-ylmethyl-4H-[1,2,4]triazol-3-ylsulfanyl]-acetamide]: the IC50 is, setting by setting: (Table 1, read-out: IC50) 37 µM; under setting [1], 38 µM.
